Reference: the NIST ThermoML archive (doi:10.1021/je800325d)

Experiments:
[1] = refractive index (Na D-line) (dimensionless); xn = mol fraction of the nth substance listed; conditions: 101 kPa, Liquid
[2] = xn = mol fraction of the nth substance listed; conditions: 101 kPa, Liquid

CC(=O)OCCC(C)C [3-methylbutyl ethanoate] + Cc1ccccc1C
Conditions | mass density, [2] [kg/m3] | refractive index, [1] | viscosity, [2] [mPa·s]
303.15 K, x1 = 0.0856 | 869.7 | 1.4903 | 0.705
303.15 K, x1 = 0.1739 | 869.5 | 1.4806 | 0.707
303.15 K, x1 = 0.2554 | 868.2 | 1.4721 | 0.709
303.15 K, x1 = 0.3538 | 867.8 | 1.462 | 0.712
303.15 K, x1 = 0.445 | 867.4 | 1.453 | 0.714
303.15 K, x1 = 0.5481 | 866 | 1.4436 | 0.718
303.15 K, x1 = 0.6564 | 865 | 1.4319 | 0.722
303.15 K, x1 = 0.7531 | 864.1 | 1.4217 | 0.726
303.15 K, x1 = 0.8542 | 863.7 | 1.4113 | 0.731
303.15 K, x1 = 0.9538 | 863.2 | 1.4018 | 0.738
313.15 K, x1 = 0.0856 | 861.4 | 1.488 | 0.622
313.15 K, x1 = 0.1739 | 860.8 | 1.4779 | 0.623
313.15 K, x1 = 0.2554 | 859.8 | 1.4695 | 0.623
313.15 K, x1 = 0.3538 | 859.1 | 1.458 | 0.624
313.15 K, x1 = 0.445 | 858.4 | 1.4486 | 0.625
313.15 K, x1 = 0.5481 | 856.7 | 1.4375 | 0.627
313.15 K, x1 = 0.6564 | 855.8 | 1.4258 | 0.631
313.15 K, x1 = 0.7531 | 855.1 | 1.4157 | 0.635
313.15 K, x1 = 0.8542 | 854.7 | 1.4062 | 0.64
313.15 K, x1 = 0.9538 | 853.9 | 1.3961 | 0.646

COC(=O)c1ccccc1 [methyl benzoate] + Cc1cccc(C)c1
refractive index, [1], Standard Abbe refractometry
Conditions | x1 = 0.1071 | x1 = 0.203 | x1 = 0.3034 | x1 = 0.3924 | x1 = 0.4909 | x1 = 0.5978 | x1 = 0.6867 | x1 = 0.8125 | x1 = 0.8734 | x1 = 0.9518
303.15 K | 1.4933 | 1.4943 | 1.4954 | 1.4962 | 1.4973 | 1.5004 | 1.5033 | 1.5069 | 1.5093 | 1.5107
313.15 K | 1.4911 | 1.4919 | 1.4927 | 1.4933 | 1.4941 | 1.496 | 1.4987 | 1.502 | 1.504 | 1.5064

[2]
Conditions | mass density, 303.15 K [kg/m3] | mass density, 313.15 K [kg/m3] | viscosity, 303.15 K [mPa·s] | viscosity, 313.15 K [mPa·s]
x1 = 0.1071 | 878.7 | 870.6 | 0.609 | 0.544
x1 = 0.203 | 900.2 | 891.9 | 0.672 | 0.598
x1 = 0.3034 | 922.3 | 914.2 | 0.739 | 0.654
x1 = 0.3924 | 941.4 | 933.2 | 0.824 | 0.729
x1 = 0.4909 | 962.7 | 954.4 | 0.923 | 0.804
x1 = 0.5978 | 985.7 | 977.1 | 1.023 | 0.892
x1 = 0.6867 | 1004.6 | 995.8 | 1.134 | 0.978
x1 = 0.8125 | 1029.6 | 1021.9 | 1.316 | 1.122
x1 = 0.8734 | 1043.8 | 1034.8 | 1.403 | 1.191
x1 = 0.9518 | 1059.6 | 1050.7 | 1.565 | 1.317

CC(=O)OCCC(C)C [3-methylbutyl ethanoate] + Cc1ccc(C)cc1
refractive index, [1], Standard Abbe refractometry
Conditions | x1 = 0.096 | x1 = 0.1713 | x1 = 0.2823 | x1 = 0.3819 | x1 = 0.4503 | x1 = 0.5438 | x1 = 0.6472 | x1 = 0.7467 | x1 = 0.8487 | x1 = 0.9398
303.15 K | 1.4821 | 1.4749 | 1.4645 | 1.4554 | 1.4495 | 1.4397 | 1.4293 | 1.4193 | 1.41 | 1.4017
313.15 K | 1.4811 | 1.474 | 1.4621 | 1.4523 | 1.4454 | 1.4356 | 1.4248 | 1.4147 | 1.4056 | 1.3984

[2]
Conditions | mass density, 303.15 K [kg/m3] | mass density, 313.15 K [kg/m3] | viscosity, 303.15 K [mPa·s] | viscosity, 313.15 K [mPa·s]
x1 = 0.096 | 852.4 | 844.8 | 0.573 | 0.517
x1 = 0.1713 | 853.6 | 845.9 | 0.584 | 0.525
x1 = 0.2823 | 854.5 | 846.3 | 0.6 | 0.537
x1 = 0.3819 | 856.7 | 847.5 | 0.617 | 0.549
x1 = 0.4503 | 857.8 | 848.7 | 0.628 | 0.556
x1 = 0.5438 | 858.1 | 849.6 | 0.645 | 0.57
x1 = 0.6472 | 858.7 | 850.1 | 0.664 | 0.584
x1 = 0.7467 | 859.7 | 850.7 | 0.684 | 0.6
x1 = 0.8487 | 860.1 | 851.3 | 0.704 | 0.615
x1 = 0.9398 | 861 | 851.6 | 0.722 | 0.634

COC(=O)c1ccccc1 [methyl benzoate] + CCc1ccccc1
refractive index, [1], Standard Abbe refractometry
Conditions | x1 = 0.1033 | x1 = 0.1927 | x1 = 0.2952 | x1 = 0.3974 | x1 = 0.4947 | x1 = 0.5866 | x1 = 0.6963 | x1 = 0.7953 | x1 = 0.9016 | x1 = 0.951
303.15 K | 1.4911 | 1.4933 | 1.4945 | 1.4958 | 1.4968 | 1.4978 | 1.5022 | 1.5054 | 1.509 | 1.5092
313.15 K | 1.4888 | 1.49 | 1.4918 | 1.4928 | 1.4937 | 1.4955 | 1.4985 | 1.5014 | 1.5044 | 1.5064

[2]
Conditions | mass density, 303.15 K [kg/m3] | mass density, 313.15 K [kg/m3] | viscosity, 303.15 K [mPa·s] | viscosity, 313.15 K [mPa·s]
x1 = 0.1033 | 877.9 | 870.2 | 0.656 | 0.583
x1 = 0.1927 | 898.9 | 890.3 | 0.701 | 0.641
x1 = 0.2952 | 921.6 | 912.7 | 0.784 | 0.687
x1 = 0.3974 | 943.6 | 935 | 0.857 | 0.75
x1 = 0.4947 | 963.3 | 954.1 | 0.947 | 0.824
x1 = 0.5866 | 982.3 | 973.7 | 1.043 | 0.925
x1 = 0.6963 | 1000.3 | 992 | 1.17 | 1.048
x1 = 0.7953 | 1023.3 | 1010.3 | 1.308 | 1.165
x1 = 0.9016 | 1053.3 | 1043.3 | 1.464 | 1.287
x1 = 0.951 | 1056.8 | 1047.4 | 1.566 | 1.346

COC(=O)c1ccccc1 [methyl benzoate] + Cc1ccc(C)cc1
refractive index, [1], Standard Abbe refractometry
Conditions | x1 = 0.0958 | x1 = 0.2055 | x1 = 0.3011 | x1 = 0.399 | x1 = 0.4951 | x1 = 0.5988 | x1 = 0.6973 | x1 = 0.7846 | x1 = 0.9027 | x1 = 0.948
303.15 K | 1.492 | 1.4939 | 1.4947 | 1.4959 | 1.4969 | 1.4982 | 1.5012 | 1.5055 | 1.5122 | 1.5104
313.15 K | 1.4913 | 1.4922 | 1.4932 | 1.4945 | 1.4952 | 1.4961 | 1.4989 | 1.5014 | 1.5088 | 1.509

[2]
Conditions | mass density, 303.15 K [kg/m3] | mass density, 313.15 K [kg/m3] | viscosity, 303.15 K [mPa·s] | viscosity, 313.15 K [mPa·s]
x1 = 0.0958 | 873 | 864.7 | 0.616 | 0.551
x1 = 0.2055 | 898.1 | 889.5 | 0.693 | 0.609
x1 = 0.3011 | 919.3 | 911.1 | 0.759 | 0.67
x1 = 0.399 | 940.9 | 932.3 | 0.839 | 0.728
x1 = 0.4951 | 961.9 | 953.1 | 0.922 | 0.803
x1 = 0.5988 | 984.4 | 975.7 | 1.033 | 0.889
x1 = 0.6973 | 1006.2 | 1000.4 | 1.152 | 0.992
x1 = 0.7846 | 1024.4 | 1013 | 1.269 | 1.093
x1 = 0.9027 | 1056 | 1047.3 | 1.45 | 1.253
x1 = 0.948 | 1059.2 | 1050.3 | 1.561 | 1.322

COC(=O)c1ccccc1 [methyl benzoate] + Cc1ccccc1C
refractive index, [1], Standard Abbe refractometry
Conditions | x1 = 0.0879 | x1 = 0.1997 | x1 = 0.3008 | x1 = 0.3925 | x1 = 0.4928 | x1 = 0.5939 | x1 = 0.6852 | x1 = 0.798 | x1 = 0.8981 | x1 = 0.9485
303.15 K | 1.5006 | 1.5007 | 1.501 | 1.5012 | 1.5016 | 1.5022 | 1.5055 | 1.5083 | 1.511 | 1.5115
313.15 K | 1.497 | 1.4971 | 1.498 | 1.4996 | 1.5002 | 1.5017 | 1.5038 | 1.5062 | 1.5085 | 1.5101

[2]
Conditions | mass density, 303.15 K [kg/m3] | mass density, 313.15 K [kg/m3] | viscosity, 303.15 K [mPa·s] | viscosity, 313.15 K [mPa·s]
x1 = 0.0879 | 890.4 | 882.3 | 0.757 | 0.664
x1 = 0.1997 | 911.4 | 902.1 | 0.842 | 0.72
x1 = 0.3008 | 931.3 | 922.8 | 0.908 | 0.785
x1 = 0.3925 | 951.2 | 942.6 | 0.975 | 0.836
x1 = 0.4928 | 970.9 | 962.4 | 1.06 | 0.91
x1 = 0.5939 | 991.7 | 983 | 1.16 | 0.992
x1 = 0.6852 | 1009.5 | 1000.7 | 1.252 | 1.07
x1 = 0.798 | 1031.6 | 1022.5 | 1.395 | 1.171
x1 = 0.8981 | 1052.1 | 1042.8 | 1.506 | 1.29
x1 = 0.9485 | 1056.3 | 1046.7 | 1.593 | 1.351

CC(=O)OCCC(C)C [3-methylbutyl ethanoate] + Cc1cccc(C)c1
refractive index, [1], Standard Abbe refractometry
Conditions | x1 = 0.0877 | x1 = 0.1726 | x1 = 0.3736 | x1 = 0.4421 | x1 = 0.5478 | x1 = 0.657 | x1 = 0.7478 | x1 = 0.8501 | x1 = 0.9465
303.15 K | 1.483 | 1.4745 | 1.4549 | 1.4487 | 1.4398 | 1.4297 | 1.4207 | 1.4101 | 1.4014
313.15 K | 1.4811 | 1.4724 | 1.452 | 1.4456 | 1.435 | 1.4248 | 1.4157 | 1.4056 | 1.3985

[2]
Conditions | mass density, 303.15 K [kg/m3] | mass density, 313.15 K [kg/m3] | viscosity, 303.15 K [mPa·s] | viscosity, 313.15 K [mPa·s]
x1 = 0.0877 | 855.8 | 847.3 | 0.561 | 0.502
x1 = 0.1726 | 856.5 | 848.2 | 0.572 | 0.51
x1 = 0.3736 | 858.2 | 849.5 | 0.605 | 0.538
x1 = 0.4421 | 858.4 | 849.6 | 0.619 | 0.549
x1 = 0.5478 | 858.8 | 849.8 | 0.643 | 0.568
x1 = 0.657 | 859.3 | 850.3 | 0.666 | 0.587
x1 = 0.7478 | 860.1 | 851.1 | 0.687 | 0.603
x1 = 0.8501 | 861 | 851.9 | 0.708 | 0.623
x1 = 0.9465 | 861.9 | 852.8 | 0.727 | 0.638
